One assay deals with Bacillus subtilis. The experiment in a line: Antibacterial activity against Bacillus subtilis KCTC 1021 after 18 hrs by serial dilution technique. In kind it is functional. Particulars: KCTC 1021, 18 h.
The next assay deals with Staphylococcus aureus. The experiment in a line: Antibacterial activity against Staphylococcus aureus KCTC 1916 after 18 hrs by serial dilution technique. Particulars: KCTC 1916, 18 h. Format: functional.
A further assay has as its system Escherichia coli. The experiment in a line: Antibacterial activity against Escherichia coli KCTC 1923 after 18 hrs by serial dilution technique. In kind it is functional. Conditions: KCTC 1923, 18 h.
In a further assay the test system is Pseudomonas aeruginosa. The experiment in a line: Antibacterial activity against Pseudomonas aeruginosa KCTC 2592 after 18 hrs by serial dilution technique. Particulars: KCTC 2592, 18 h. Format: functional.
Another assay deals with ACHN. The experiment in a line: Cytotoxicity against human ACHN at 10 ug/ml. In kind it is functional, cell-based.
The test system of the next assay is HCT-15. The experiment in a line: Cytotoxicity against human HCT15 at 10 ug/ml. In kind it is functional, cell-based.
For the next assay, the system named is MDA-MB-231. The experiment in a line: Cytotoxicity against human MDA-MB-231 at 10 ug/ml. Format: functional, cell-based.
In the next assay the test system is NCI-H23. The experiment in a line: Cytotoxicity against human NCI-H23 at 10 ug/ml. Format: functional, cell-based.
The next assay relates to NUGC-3. The experiment in a line: Cytotoxicity against human NUGC3 at 10 ug/ml. In kind it is functional, cell-based.
A further assay concerns PC-3. The experiment in a line: Cytotoxicity against human PC3 at 10 ug/ml. In kind it is functional, cell-based.

In brackets after ≈: the same amount, converted by molar mass. Activity calls are given as the source filed them. The rule behind the calls is not given here.

Usually MIC stands for the lowest concentration that inhibits growth of the organism. For `C[C@H]1CCC/C=C\C=C\[C@H](O)C[C@@H](O)C/C=C\C=C\[C@@H](OC(=O)CCC(=O)O[C@H]2O[C@@H](CO)[C@H](O)[C@@H](O)[C@@H]2O)C/C=C/C=C\C(=O)O1` [MACROLACTIN W], the MIC in the assay with Bacillus subtilis, against Staphylococcus aureus, against Escherichia coli and against Pseudomonas aeruginosa was 64 µg/mL (≈ 96.3 µM) in each case. In addition, the result in the assay with ACHN, in the assay with HCT-15, with MDA-MB-231, with NCI-H23, in the assay on NUGC-3 and with PC-3 was inactive.

The values are drawn from ChEMBL document CHEMBL1777743, “Macrolactin W, a new antibacterial macrolide from a marine Bacillus sp” (2011).
